# According to US20060069132A1, “Azolecarboxamide herbicides” (priority 2004, published 2006):
# Key:
# [1] = system: small flower umbrella sedge; assay: Test B flooded paddy test; type: in vivo, Cyperus difformis; settings: 1000 g ai/ha, scale 0 to 100 (0 no effect, 100 complete control)
# How it was run: (§1)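 Visual control ratings, 0–100 versus untreated controls, taken after 13 to 15 days in the greenhouse. Blackgrass received a postemergence spray at the 1- to 4-leaf stage (2–18 cm); ducksalad, umbrella sedge and barnyardgrass were flooded-paddy treated at 2 leaves.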
# wild oat = assay: Test B postemergence herbicide test; type: in vivo, Avena fatua
# How it was run: (§2)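 Treated at 2-leaf (paddy) or 1–4-leaf, 2–18 cm (postemergence); greenhouse 13–15 d; visual score vs control, 0 none to 100 complete control; dash = not tested.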
# wheat = assay: Test B postemergence herbicide test; type: in vivo, Triticum aestivum; parameters: key to Wheat plant response rating: 0 = no effect, 100 = complete control
# How it was run: as §2
# Surinam grass = assay: Test B pre-/postemergence herbicide test; type: in vivo, Urochloa decumbens
# How it was run: (§3)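 Seeds were planted and treated preemergence with compounds formulated in a non-phytotoxic solvent mixture containing surfactant, while plants at the 1- to 4-leaf stage (2 to 18 cm) received postemergence sprays. Flooded paddy plants were grown to the 2-leaf stage. After 13 to 15 days in a greenhouse, injury was visually rated 0–100 against untreated controls.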
# lambsquarters = assay: Test B pre-/postemergence herbicide test; type: in vivo, Chenopodium album
# How it was run: as §3
# barnyardgrass [2] = assay: Test B pre-/postemergence herbicide test; type: in vivo, Echinochloa crus-galli
# How it was run: (§4)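 Response was scored visually 13 to 15 days after treatment against untreated greenhouse controls, 0 meaning no effect and 100 complete control. Formulations (solvent mixture plus surfactant) went onto soil after planting, onto foliage of 1- to 4-leaf plants, and onto 2-leaf plants in a flooded paddy set including rice and barnyardgrass.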
# rice [3] = assay: Test B pre-/postemergence herbicide test; type: in vivo, Oryza sativa; settings: preemergence; for Rice plant response rating (0 to 100 scale): 125 g ai/ha; for Plant response rating, Rice: 500 g ai/ha
# How it was run: as §3
# velvetleaf = assay: Test B pre-/postemergence herbicide test; type: in vivo, Abutilon theophrasti
# How it was run: as §3
# morningglory = assay: Test B pre-/postemergence herbicide test; type: in vivo, Ipomoea coccinea
# How it was run: as §4
# corn = assay: Test B pre-/postemergence herbicide test; type: in vivo, Zea mays
# How it was run: as §3
# large crabgrass = assay: Test B pre-/postemergence herbicide test; type: in vivo, Digitaria sanguinalis
# How it was run: as §3
# cocklebur = assay: Test B pre-/postemergence herbicide test; type: in vivo, Xanthium strumarium
# How it was run: as §4
# ducksalad = assay: Test B flooded paddy test; type: in vivo, Heteranthera limosa; settings: 1000 g ai/ha, scale 0 to 100 (0 no effect, 100 complete control)
# How it was run: as §1
# barnyardgrass [4] = assay: Test B flooded paddy test; type: in vivo, Echinochloa crus-galli; settings: 1000 g ai/ha, scale 0 to 100 (0 no effect, 100 complete control)
# How it was run: as §1
# giant foxtail = assay: Test B pre-/postemergence herbicide test; type: in vivo, Setaria faberi
# How it was run: as §3
# blackgrass = assay: Test B postemergence herbicide test; type: in vivo, Alopecurus myosuroides
# How it was run: as §1
# pigweed = assay: Test B pre-/postemergence herbicide test; type: in vivo, Amaranthus retroflexus
# How it was run: as §3
# rice [5] = assay: Test B flooded paddy test; type: in vivo, Oryza sativa; settings: 1000 g ai/ha, scale 0 to 100 (0 no effect, 100 complete control)
# How it was run: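 Visual ratings, 0 (no effect) to 100 (complete control), made versus controls after 13–15 d greenhouse. Paddy plants treated at 2-leaf stage; postemergence plants at 1- to 4-leaf stage, 2–18 cm tall.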
# [6] = postemergence, 125 g ai/ha; visual rating, scale 0 (no effect) to 100 (complete control)
# [7] = postemergence, 500 g ai/ha; visual rating, scale 0 (no effect) to 100 (complete control)
# [8] = 125 g ai/ha; 0 = no effect, 100 = complete control; preemergence
# [9] = 500 g ai/ha; visual rating, 0 = no effect, 100 = complete control; preemergence
# [10] = 0 = no effect, 100 = complete control
# [11] = visual rating, 0 = no effect, 100 = complete control
# [12] = 125 g ai/ha; visual rating, scale 0 (no effect) to 100 (complete control); postemergence
# [13] = postemergence, 500 g ai/ha; scale 0 to 100, 0 is no effect, 100 is complete control
# [14] = 500 g ai/ha; visual rating 0-100, 0 no effect, 100 complete control; preemergence
compound,measurement,setting,value
CCN(CC)C(=O)c1cccc(NC(=O)c2nn(C(C)(C)C)cc2Br)c1 [Compound 220],"Sedge, Umbrella plant response rating","[1]; visual rating, 13 to 15 days",80
same,"Oat, Wild plant response rating",wild oat; [6],0
same,"Oat, Wild plant response rating",wild oat; [7],10
same,Wheat plant response rating,wheat; [6],0
same,Wheat plant response rating,wheat; [7],0
same,Surinam Grass plant response rating (0 to 100 scale),Surinam grass; [8],0
same,"Plant response rating, Surinam Grass",Surinam grass; [9],10
same,Surinam Grass plant response rating,Surinam grass; [6],0
same,Surinam Grass plant response rating,Surinam grass; [7],10
same,Lambsquarters plant response rating (0 to 100 scale),lambsquarters; [8],0
same,"Plant response rating, Lambsquarters",lambsquarters; [9],70
same,Lambsquarters plant response rating,lambsquarters; [6],10
same,Lambsquarters plant response rating,lambsquarters; [7],20
same,Barnyardgrass plant response rating (0 to 100 scale),barnyardgrass [2]; [8],0
same,"Plant response rating, Barnyardgrass",barnyardgrass [2]; [9],0
same,Barnyardgrass plant response rating,barnyardgrass [2]; [6],0
same,Barnyardgrass plant response rating,barnyardgrass [2]; [7],0
same,Rice plant response rating (0 to 100 scale),rice [3]; [10],0
same,"Plant response rating, Rice",rice [3]; [11],0
same,Velvetleaf plant response rating (0 to 100 scale),velvetleaf; [8],0
same,"Plant response rating, Velvetleaf",velvetleaf; [9],0
same,Velvetleaf plant response rating,velvetleaf; [6],0
same,Velvetleaf plant response rating,velvetleaf; [7],0
same,Morningglory plant response rating (0 to 100 scale),morningglory; [8],0
same,"Plant response rating, Morningglory",morningglory; [9],0
same,Morningglory plant response rating,morningglory; [6],0
same,Morningglory plant response rating,morningglory; [7],0
same,Corn plant response rating (0 to 100 scale),corn; [8],0
same,"Plant response rating, Corn",corn; [9],0
same,Corn plant response rating,corn; [6],10
same,Corn plant response rating,corn; [7],10
same,"Crabgrass, Large plant response rating (0 to 100 scale)",large crabgrass; [8],20
same,"Plant response rating, Crabgrass, Large",large crabgrass; [9],100
same,"Crabgrass, Large plant response rating",large crabgrass; [6],10
same,"Crabgrass, Large plant response rating",large crabgrass; [7],10
same,Cocklebur plant response rating (0 to 100 scale),cocklebur; [8],0
same,"Plant response rating, Cocklebur",cocklebur; [9],0
same,Cocklebur plant response rating,cocklebur; [6],0
same,Cocklebur plant response rating,cocklebur; [7],10
same,Ducksalad plant response rating,"ducksalad; visual rating, 13 to 15 days",40
same,Barnyardgrass plant response rating,"barnyardgrass [4]; visual rating, 13 to 15 days",0
same,"Foxtail, Giant plant response rating (0 to 100 scale)",giant foxtail; [8],0
same,"Plant response rating, Foxtail, Giant",giant foxtail; [9],10
same,"Foxtail, Giant plant response rating",giant foxtail; [6],0
same,"Foxtail, Giant plant response rating",giant foxtail; [7],10
same,Blackgrass plant response rating,blackgrass; [6],0
same,Blackgrass plant response rating,blackgrass; [7],0
same,Pigweed plant response rating (0 to 100 scale),pigweed; [8],0
same,"Plant response rating, Pigweed",pigweed; [9],100
same,Pigweed plant response rating,pigweed; [6],10
same,Pigweed plant response rating,pigweed; [7],10
same,Rice plant response rating,"rice [5]; visual rating, 13 to 15 days",0
CCn1nc(C(C)(C)C)cc1C(=O)Nc1cc(OC)ccc1OC [Compound 297],"Sedge, Umbrella plant response rating",[1],80
same,"Oat, Wild plant response rating",wild oat; [12],0
same,"Oat, Wild plant response rating",wild oat; [13],20
same,Wheat plant response rating,wheat; [12],0
same,Wheat plant response rating,wheat; [13],10
same,Surinam Grass plant response rating (0 to 100 scale),Surinam grass; [8],10
same,Surinam Grass plant response rating,Surinam grass; [12],20
same,"Plant response rating, Surinam Grass",Surinam grass; [9],20
same,Surinam Grass plant response rating,Surinam grass; [13],30
same,Lambsquarters plant response rating (0 to 100 scale),lambsquarters; [8],0
same,Lambsquarters plant response rating,lambsquarters; [12],10
same,"Plant response rating, Lambsquarters",lambsquarters; [9],80
same,Lambsquarters plant response rating,lambsquarters; [13],20
same,Barnyardgrass plant response rating (0 to 100 scale),barnyardgrass [2]; [8],0
same,Barnyardgrass plant response rating,barnyardgrass [2]; [12],10
same,"Plant response rating, Barnyardgrass",barnyardgrass [2]; [9],20
same,Barnyardgrass plant response rating,barnyardgrass [2]; [13],20
same,Rice plant response rating (0 to 100 scale),rice [3]; [10],0
same,"Plant response rating, Rice",rice [3]; [11],10
same,Velvetleaf plant response rating,velvetleaf; [12],0
same,"Plant response rating, Velvetleaf",velvetleaf; [9],10
same,Velvetleaf plant response rating,velvetleaf; [13],10
same,Morningglory plant response rating (0 to 100 scale),morningglory; [8],10
same,Morningglory plant response rating,morningglory; [12],0
same,"Plant response rating, Morningglory",morningglory; [9],10
same,Morningglory plant response rating,morningglory; [13],30
same,Corn plant response rating (0 to 100 scale),corn; [8],0
same,Corn plant response rating,corn; [12],10
same,"Plant response rating, Corn",corn; [9],0
same,Corn plant response rating,corn; [13],100
same,"Crabgrass, Large plant response rating (0 to 100 scale)",large crabgrass; [8],20
same,"Crabgrass, Large plant response rating",large crabgrass; [12],20
same,"Plant response rating, Crabgrass, Large",large crabgrass; [9],80
same,"Crabgrass, Large plant response rating",large crabgrass; [13],30
same,Cocklebur plant response rating (0 to 100 scale),cocklebur; [8],0
same,Cocklebur plant response rating,cocklebur; [12],0
same,"Plant response rating, Cocklebur",cocklebur; [9],0
same,Cocklebur plant response rating,cocklebur; [13],0
same,Ducksalad plant response rating,ducksalad,30
same,Barnyardgrass plant response rating,barnyardgrass [4],30
same,"Foxtail, Giant plant response rating (0 to 100 scale)",giant foxtail; [8],10
same,"Foxtail, Giant plant response rating",giant foxtail; [12],20
same,"Plant response rating, Foxtail, Giant",giant foxtail; [9],60
same,"Foxtail, Giant plant response rating",giant foxtail; [13],30
same,Blackgrass plant response rating,blackgrass; [12],10
same,Blackgrass plant response rating,blackgrass; [13],20
same,Pigweed plant response rating (0 to 100 scale),pigweed; [8],0
same,Pigweed plant response rating,pigweed; [12],0
same,"Plant response rating, Pigweed",pigweed; [9],40
same,Pigweed plant response rating,pigweed; [13],40
same,Rice plant response rating,rice [5],20
CCN(CC)C(=O)c1cccc(NC(=O)c2nn(C(C)(C)C)cc2C(F)(F)F)c1 [Compound 169],"Sedge, Umbrella plant response rating","[1]; visual rating, 13 to 15 days",0
same,"Oat, Wild plant response rating",wild oat; [6],10
same,"Oat, Wild plant response rating",wild oat; [7],10
same,Wheat plant response rating,wheat; [6],0
same,Wheat plant response rating,wheat; [7],0
same,Surinam Grass plant response rating (0 to 100 scale),Surinam grass; [8],0
same,"Plant response rating, Surinam Grass",Surinam grass; [14],10
same,Surinam Grass plant response rating,Surinam grass; [6],0
same,Surinam Grass plant response rating,Surinam grass; [7],10
same,Lambsquarters plant response rating (0 to 100 scale),lambsquarters; [8],0
same,"Plant response rating, Lambsquarters",lambsquarters; [14],60
same,Lambsquarters plant response rating,lambsquarters; [6],40
same,Lambsquarters plant response rating,lambsquarters; [7],60
same,Barnyardgrass plant response rating (0 to 100 scale),barnyardgrass [2]; [8],0
same,"Plant response rating, Barnyardgrass",barnyardgrass [2]; [14],10
same,Barnyardgrass plant response rating,barnyardgrass [2]; [6],0
same,Barnyardgrass plant response rating,barnyardgrass [2]; [7],10
same,Rice plant response rating (0 to 100 scale),rice [3]; [10],0
same,"Plant response rating, Rice","rice [3]; visual rating 0-100, 0 no effect, 100 complete control",0
same,Velvetleaf plant response rating (0 to 100 scale),velvetleaf; [8],0
same,"Plant response rating, Velvetleaf",velvetleaf; [14],0
same,Velvetleaf plant response rating,velvetleaf; [6],0
same,Velvetleaf plant response rating,velvetleaf; [7],0
same,Morningglory plant response rating (0 to 100 scale),morningglory; [8],0
same,"Plant response rating, Morningglory",morningglory; [14],10
same,Morningglory plant response rating,morningglory; [6],20
same,Morningglory plant response rating,morningglory; [7],70
same,Corn plant response rating (0 to 100 scale),corn; [8],0
same,"Plant response rating, Corn",corn; [14],0
same,Corn plant response rating,corn; [6],10
same,Corn plant response rating,corn; [7],10
same,"Crabgrass, Large plant response rating (0 to 100 scale)",large crabgrass; [8],0
same,"Plant response rating, Crabgrass, Large",large crabgrass; [14],40
same,"Crabgrass, Large plant response rating",large crabgrass; [6],10
same,"Crabgrass, Large plant response rating",large crabgrass; [7],10
same,Cocklebur plant response rating (0 to 100 scale),cocklebur; [8],0
same,"Plant response rating, Cocklebur",cocklebur; [14],0
same,Cocklebur plant response rating,cocklebur; [6],0
same,Cocklebur plant response rating,cocklebur; [7],0
same,Ducksalad plant response rating,"ducksalad; visual rating, 13 to 15 days",0
same,Barnyardgrass plant response rating,"barnyardgrass [4]; visual rating, 13 to 15 days",0
same,"Foxtail, Giant plant response rating (0 to 100 scale)",giant foxtail; [8],0
same,"Plant response rating, Foxtail, Giant",giant foxtail; [14],10
same,"Foxtail, Giant plant response rating",giant foxtail; [6],0
same,"Foxtail, Giant plant response rating",giant foxtail; [7],0
same,Blackgrass plant response rating,blackgrass; [6],0
same,Blackgrass plant response rating,blackgrass; [7],10
same,Pigweed plant response rating (0 to 100 scale),pigweed; [8],0
same,"Plant response rating, Pigweed",pigweed; [14],100
same,Pigweed plant response rating,pigweed; [6],20
same,Pigweed plant response rating,pigweed; [7],40
same,Rice plant response rating,"rice [5]; visual rating, 13 to 15 days",0
